# Reference: article PMC12684391, “Mechanistic insights into the monotherapy and combination potential of FEN1 inhibition in cancer therapy” (Nucleic Acids Research, 2025)
# Key:
# [1] = test system: HCT-116, NCI-H460, SUM149PT, MDA-MB-436 cells; experiment: Combination viability assay (CTG, Bliss synergy); assay type: cell-based; conditions: control in place of MSC778
# Method: For combination analysis, cells were seeded in 70 μl of media in 384-well plates pre-dosed with compounds (5-point dose–response matrix) with a D300e digital dispenser (Tecan). Cell proliferation was determined after 7 days using CTG. Analysis was performed with Genedata Screener (Compound Synergy Extension) to determine Synergy scores (Bliss model), using a formulation whereby the Blissexcess is a continuous value and values higher than 2 are usually considered synergistic, and values between 0 and 2 are usually considered additive.
# GEN1 = molecular target: T1, GEN1 (Homo sapiens, UniProt Q17RS7); experiment: Fluorescence-based nuclease activity assay, GEN1; assay type: biochemical; conditions: n = 11, SD = 569; cognate substrate
# T1 construct: Truncated GEN1 (1-527) was expressed in insect cells; Strep-tag (implied by Streptrap column); made in house; host or cells: insect cells
# T1 sequence (Q17RS7 1-527): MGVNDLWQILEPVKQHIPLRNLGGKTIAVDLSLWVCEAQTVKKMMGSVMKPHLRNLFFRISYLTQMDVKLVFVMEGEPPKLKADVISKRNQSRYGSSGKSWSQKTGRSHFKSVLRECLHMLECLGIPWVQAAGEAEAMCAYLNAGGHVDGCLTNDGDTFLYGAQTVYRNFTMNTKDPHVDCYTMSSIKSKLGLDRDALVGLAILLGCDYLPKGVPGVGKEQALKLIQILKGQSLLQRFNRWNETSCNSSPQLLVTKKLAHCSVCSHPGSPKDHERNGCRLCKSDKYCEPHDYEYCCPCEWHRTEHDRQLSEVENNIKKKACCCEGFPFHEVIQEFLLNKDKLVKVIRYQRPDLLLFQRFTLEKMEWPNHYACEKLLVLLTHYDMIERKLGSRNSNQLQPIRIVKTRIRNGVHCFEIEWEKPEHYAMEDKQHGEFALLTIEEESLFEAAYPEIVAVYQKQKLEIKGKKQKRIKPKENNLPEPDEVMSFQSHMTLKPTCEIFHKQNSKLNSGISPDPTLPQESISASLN
# Method: (§1) MSC778 was dissolved in dimethyl sulphoxide (DMSO) to give a 10 mM stock. FEN1/EXO1: compound was dispensed into black 384-shallow well microplates (Greiner #784076). The compound was dispensed as an 11-point dose response with a 3-fold serial dilution from a top concentration of 10 mM (to give a final in-assay concentration of 100 µM). GEN1/XPG: MSC778 was dispensed into black 1536-well plates (Greiner #782076). The compound was dispensed as a 20-point dose response with a 3-fold serial dilution from a top concentration of 10 mM (to give a final in-assay concentration of 100 µM). The volume of DMSO was adjusted to ensure that each well contained 1% (v/v) DMSO in the final assay. Control wells containing DMSO alone or inhibitor at sufficient concentration to cause complete inhibition of the reaction were also included. […]
# (§2) 5 µl (FEN1/EXO1) or 3 µl per well (GEN1/XPG) of stop buffer (20 mM Tris pH 7.5, 300 mM EDTA) was added to all wells, then the plates were read on the CLARIOstar Plus (BMG LABTECH Ltd.) using the Fluorescein (FITC) wavelengths (Ex 483 ± 14, Em 530 ± 30, Dichroic auto/502.5) and auto focal height/gain settings.
# (§3) All data analysis was carried out using Genedata Screener software. IC50 values were calculated using the SmartFit function.
# XPG = molecular target: T2, XPG (Homo sapiens, UniProt P28715); experiment: Fluorescence-based nuclease activity assay, XPG; assay type: biochemical; conditions: n = 10, SD = 0.86; cognate substrate
# T2 construct: XPG (1-1186); Strep-tag (C); made in house; host or cells: Sf9 insect cells
# T2 sequence (P28715 whole entry): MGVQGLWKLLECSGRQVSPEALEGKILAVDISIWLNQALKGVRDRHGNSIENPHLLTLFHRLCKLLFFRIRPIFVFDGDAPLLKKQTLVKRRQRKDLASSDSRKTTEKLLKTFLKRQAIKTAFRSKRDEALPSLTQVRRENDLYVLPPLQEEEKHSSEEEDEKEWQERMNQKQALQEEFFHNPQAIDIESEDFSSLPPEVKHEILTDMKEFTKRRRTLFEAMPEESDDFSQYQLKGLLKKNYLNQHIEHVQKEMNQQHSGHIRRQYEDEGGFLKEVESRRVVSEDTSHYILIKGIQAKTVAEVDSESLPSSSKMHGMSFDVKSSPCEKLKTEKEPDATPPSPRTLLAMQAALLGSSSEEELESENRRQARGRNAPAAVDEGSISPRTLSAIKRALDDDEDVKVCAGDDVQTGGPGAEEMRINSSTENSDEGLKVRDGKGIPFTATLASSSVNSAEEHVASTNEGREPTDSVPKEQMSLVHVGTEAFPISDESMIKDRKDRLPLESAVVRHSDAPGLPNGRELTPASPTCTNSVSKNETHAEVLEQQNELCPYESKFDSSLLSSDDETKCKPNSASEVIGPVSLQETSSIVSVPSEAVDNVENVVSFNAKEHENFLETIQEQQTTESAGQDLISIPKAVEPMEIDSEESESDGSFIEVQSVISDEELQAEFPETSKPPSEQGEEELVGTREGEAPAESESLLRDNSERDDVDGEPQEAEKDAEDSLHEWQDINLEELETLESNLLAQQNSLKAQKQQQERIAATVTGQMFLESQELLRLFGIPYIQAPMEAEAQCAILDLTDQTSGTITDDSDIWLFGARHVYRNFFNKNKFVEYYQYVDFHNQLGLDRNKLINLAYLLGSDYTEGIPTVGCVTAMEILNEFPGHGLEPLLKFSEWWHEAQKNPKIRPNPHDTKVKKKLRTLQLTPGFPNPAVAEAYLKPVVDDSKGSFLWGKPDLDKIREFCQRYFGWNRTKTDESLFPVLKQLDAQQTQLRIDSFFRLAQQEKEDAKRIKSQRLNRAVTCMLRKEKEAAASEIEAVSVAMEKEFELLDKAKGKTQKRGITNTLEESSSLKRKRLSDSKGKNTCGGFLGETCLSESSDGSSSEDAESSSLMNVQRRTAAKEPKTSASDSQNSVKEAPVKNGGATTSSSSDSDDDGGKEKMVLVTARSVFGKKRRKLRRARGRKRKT
# Method: as §1, §2, §3
# [2] = test system: DLD-1, DLD-1 BRCA2KO, SUM149PT, MDA-MB-436 cells; experiment: Flow cytometric analysis of apoptosis (annexin V/PI); assay type: cell-based; conditions: 1 μM, 72 h
# Method: (§4) Apoptosis was measured using annexin V and propidium iodide (PI) staining using an Annexin V-fluorescein isothiocyanate (FITC) apoptosis detection kit (Thermo Fisher Scientific, V13242) according to manufacturer’s instructions.
# (§5) Briefly, cells were cultured in six-well plates and treated with FEN1 inhibitor at indicated concentrations for 72 h. The supernatant and adherent cells were collected and washed twice with ice-cold PBS, then re-suspended in 100 µl of 1× binding buffer. Annexin V-FITC conjugate (5 µl) and PI (1 µl) were added, and the cells were incubated at room temperature for 15 min in the dark. After addition of 300 µl of 1× binding buffer, the cells were analyzed using a flow cytometer (CytoFLEX, Beckman).
# [3] = test system: EWS cells (MHH-ES-1, RD-ES); experiment: as above; assay type: cell-based; conditions: 0.1 μM, 72 h
# Method: as §4, §5
# U-2 OS cells = experiment: as above; assay type: cell-based; conditions: 0.1 μM, 72 h
# Method: as §4, §5
# MDA-MB-436 cells = experiment: Colony formation assay; assay type: cell-based
# Method: Exponentially growing DLD-1, DLD-1 BRCA2^KO, SUM149PT, and MDA-MB-436 were seeded on 24-well plates at densities of 100, 400, 500, or 650 cells/well, respectively. Cells were treated with a serial dilution of FEN1 inhibitor and incubated for 11 days (DLD-1 and SUM149PT) or 14 days (DLD-1 BRCA2^KO and MDA-MB-436). Colonies were washed with PBS, fixed with 70% ethanol, and stained with 1% crystal violet solution (Sigma–Aldrich). Excess crystal violet solution was washed off using tap water and images were acquired using a GelCount Scanner (Oxford Optronix). Dye was solubilized with 10% acetic acid (VWR) and absorbance at 595 nm measured using a CLARIOstar plate reader (BMG LABTECH Ltd.). Raw absorbance data for each cell line were normalized to DMSO treatment. Data were fitted with a nonlinear regression curve (four parameters) to determine EC50 (half maximal inhibitory concentration) values.
IC50 (GEN1),IC50 (XPG),Compound,Combination effects on viability with partner DDR inhibitors [1],Induction of cell death [2],Induction of cell death [3],Induction of apoptotic cell death (U-2 OS cells),"EC50 (MDA-MB-436 cells; Homo sapiens, 336 h, MDA-MB-436, 14 days, read-out: Colony survival EC50)",Enhancement in sensitivity in colony survival versus 7-day viability assay (MDA-MB-436 cells; MDA-MB-436)
–,–,C[C@@H](Oc1nn2c(c(O)c1=O)C(=O)N1CCOC[C@@H]1C2)c1ccc2ccc(Cl)cc2c1 [MSC781],not observed,–,–,–,–,–
1660 nM,218 nM,C[C@H](Oc1nn2c(c(O)c1=O)C(=O)N1CCOC[C@@H]1C2)c1ccc2ccc(Cl)cc2c1 [MSC778],–,induced cell death by apoptosis,induced apoptotic cell death,not,65 nM,10 fold
